This note sets out measurements from patent US20230303564A1, “PYRIMIDINE RING COMPOUND” (MEDSHINE DISCOVERY INC., priority 2020, published 2023).

The target of one data set is CDK1/CyclinB1 (Homo sapiens (Human), UniProt P06493). Kind of data set: CDK1/CyclinB1 enzyme activity test (ADP-Glo). It counts as biochemical. To be noted: 25 μM ATP, 25° C. 120 minutes, read-out: CDK1/Cyclin B IC50. Here is the method: CDK1/CyclinB1 Enzyme Reaction System
(§1) Enzymes, substrates, ATP, and inhibitors were diluted by kinase buffer in the kit. The compounds to be tested were diluted 5-fold with a multi-channel pipette to the eighth concentration, that is, from 50 μM to 0.65 nM, the concentration of DMSO was 5%, and a double-hole experiment was set up. 1 μL of each concentration gradient of inhibitors, 2 μL of CDK1/CyclinB1 enzyme (12.5 ng), 2 μL mixture of substrate and ATP (25 μM adenosine triphosphate, 0.2 μg/μL substrate) were added to the microplates, and the final concentration gradient of the compound was 10 μM to 0.13 nM. The reaction system was reacted at 25° C. for 120 minutes. After the reaction, 5 μL of ADP-Glo reagent was added to each well, the reaction was carried out at 25° C. for 40 minutes, after the reaction was completed, 10 μL of kinase detection reagent was added to each well, the reaction was carried out at 25° C. for 30 minutes, the multiple label analyzer was used to read the chemiluminescence with an integration time of 0.5 seconds.
(§2) The equation (Sample−Min)/(Max−Min)*100% was used to convert the raw data into inhibition rate, and the value of IC50 can be obtained by curve fitting with four parameters (obtained by log (inhibitor) vs. response-Variable slope mode in GraphPad Prism). The enzymatic inhibitory activity of the compounds of the present disclosure on CDK1/CyclinB1, CDK2/CyclinA2, CDK2/CyclinE1, CDK4/CyclinD1, CDK6/CyclinD1, CDK7/CyclinH/MAT1, CDK9/CyclinT1 was provided in Table 1.

The next data set has as its target CDK2/CyclinA2 (Homo sapiens (Human), UniProt P24941). Kind of data set: CDK2/CyclinA2 enzyme activity test (ADP-Glo). In kind it is biochemical. Particulars: 50 μM ATP, 25° C. 60 minutes, read-out: CDK2/Cyclin A2 IC50. Here is the method: CDK2/CyclinA2 Enzyme Reaction System
as §1, with “CDK2/CyclinA2” for “CDK1/CyclinB1”, “(1.6” for “(12.5”, “(50” for “(25”, “ATP, 0.1” for “adenosine triphosphate, 0.2”, “60” for “120”, “seconds” for “seconds.”
as §2

Another data set deals with CDK2/CyclinE1 (Homo sapiens (Human), UniProt P24941). Kind of data set: CDK2/CyclinE1 enzyme activity test (ADP-Glo). To be noted: 150 μM ATP, 25° C. 60 minutes, read-out: CDK2/Cyclin E1 IC50. It counts as biochemical. Here is the method: CDK2/CyclinE1 Enzyme Reaction System
as §1, with “CDK2/CyclinE1” for “CDK1/CyclinB1”, “(2” for “(12.5”, “(150” for “(25”, “ATP, 0.1” for “adenosine triphosphate, 0.2”, “60” for “120”
as §2

Another data set deals with CDK4/CyclinD1 (Homo sapiens (Human), UniProt P11802). As to the kind of experiment: CDK4/CyclinD1 enzyme activity test (LANCE Ultra TR-FRET). It counts as biochemical. Particulars: 350 μM ATP, 25° C. 120 minutes, read-out: CDK4/Cyclin D1 IC50. Here is the method: CDK4/CyclinD1 Enzyme Reaction System
(§3) Preparation of Kinase Buffer:
(§4) The composition of the buffer: 50 mM of hydroxyethylpiperazine ethanesulfonic acid solution at pH 7.5, 1 mM of ethylenediaminetetraacetic acid, 10 mM of magnesium chloride, 0.01% Brij-35, and 2 mM of dithiothreitol.
(§5) Enzymes, substrate LANCE Ultra ULight™-4E-BP-1(Thr37146) Peptide, ATP, and inhibitors were diluted by kinase buffer.
(§6) The compounds to be tested were diluted 5-fold with a multi-channel pipette to the eighth concentration, that is, from 40 μM to 0.512 nM, the concentration of DMSO was 4%, and a double-hole experiment was set up. […] The reaction system was reacted at 25° C. for 120 minutes. After the reaction, 5 μL mixture of EDTA and 2× LANCE™ Detection Buffer (1:1) were added to each well, the reaction was carried out at 25° C. for 5 minutes, after the reaction was completed, 5 μL of LANCE Ultra Eu-anti-P-4E-BP1(Thr37MS) (4 nM) was added to each well, the reaction was carried out at 25° C. for 60 minutes, the reaction signal was detected by Nivo instrument according to the principle of time-resolved fluorescence resonance energy transfer.
as §2

Another data set addresses CDK6/CyclinD1 (Homo sapiens (Human), UniProt Q00534). As to the kind of experiment: CDK6/CyclinD1 enzyme activity test (LANCE Ultra TR-FRET). It counts as biochemical. To be noted: 250 μM ATP, 25° C. 120 minutes, read-out: CDK6/Cyclin D1 IC50. Here is the method: CDK6/CyclinD1 Enzyme Reaction System
as §3, §4, §5, §6, §2

A further data set concerns the target CDK7/CyclinH/MAT1 (Homo sapiens (Human), UniProt P50613). Kind of data set: CDK7/CyclinH/MAT1 enzyme activity test (ADP-Glo). In kind it is biochemical. Particulars: 10 μM ATP, 25° C. 120 minutes, read-out: CDK7/Cyclin H IC50.
For a further data set, the target named is CDK9/CyclinT1 (Homo sapiens (Human), UniProt P50750). Kind of data set: CDK9/CyclinT1 enzyme activity test (ADP-Glo). In kind it is biochemical. To be noted: 100 μM ATP, 25° C. 120 minutes, read-out: CDK 9/Cyclin T1 IC50. Here is the method: CDK9/CyclinT1 Enzyme Reaction System
as §1, with “CDK9/CyclinT1” for “CDK1/CyclinB1”, “(4” for “(12.5”, “(100” for “(25”, “ATP,” for “adenosine triphosphate,”
as §2

The next data set relates to OVCAR-3 cells. Kind of data set: Cell activity test, anti-proliferation (CellTiter Glo), OVCAR-3. It counts as cell-based, human. Particulars: OVCAR-3, 7 days of culture. Here is the method:
2) Day 1: Laying Cell Plates
(6) 0.7 mL of cell suspension was pipetted into the counting cup, the cells were counted on ViCell XR, and the cell suspension was diluted separately with culture medium to the required cell concentration for laying cell plates: 1000/30 ul.
(7) Microplates (2 plates) were required, 100 uL of phosphate buffered saline was added to the peripheral wells of the 384-well plate, 30 uL of cell suspension was added to the other wells, and the cell plate was placed into incubator for culture.
(1) Compound preparation: the stock solution of the compound to be tested was 10 mM.
(2) The compound to be tested was diluted 3 times with DMSO for 10 gradients.
(2) The compound to be tested was diluted with culture medium, and the highest final concentration was 10 μM.
(4) 10 μL of the compound was pipetted into the 384-well plate, and then the cell plate was placed back into the incubator for culture.
4) Adding CTG and Reading the Plate
(1) After 7 days of culture, 50 ul CellTiter Glo was added to the cell plate, shaken for 10 minutes in the dark, and left at room temperature for 5 minutes.
(2) The plate was read on Envision with the program: US LUM 384 (CPS). The experiment was originally stored in the personal disk:
1. The mean and standard deviation of 0% inhibition (DMSO row, ZPE) and 100% inhibition (PBS row, HPE) were calculated;
2. Inhibition rate (%)=(1−(sample value-average value of 100% inhibition)/(average value of 0% inhibition-average value of 100% inhibition))*100;
3. The curve was fitted by GraphPad 8.0 software;

Data set [1] can be described thus: Pharmacokinetic evaluation in CD-1 (ICR) mice, oral. In kind it is in vivo, mouse. To be noted: male CD-1 (ICR) mice, oral 5 mg/kg, plasma. Here is the method: Experimental Scheme of Compounds 18, 19 and 20
The healthy adult male CD-1 (ICR) mice used in this study were purchased from Pinghu Weitong Lihua Experimental Animal Technology Co., Ltd.
0.300 mL of the stock solution was measured and vortexed for 2 minutes to obtain a homogeneous suspension at a concentration of 1 mg/mL, and the administration vehicle was 1% HPMC in water.
Two male CD-1 (ICR) mice were given 5 mg/kg of the compound to be tested by intragastric administration.
The blood of two animals was collected at each time point by serial blood collection. 30 μL of whole blood was collected respectively at 0.25, 0.5, 1, 2, 4, 8, and 24 hours after administration. The whole blood was placed in an anticoagulant tube, centrifuged at 3200 g for 10 minutes at 4° C., plasma was prepared and stored at −60° C. or lower. The drug concentration in plasma was determined by LC/MS-MS.

Data set [2] deals with human ovarian cancer OVCAR-3 cells subcutaneous xenograft tumor. Kind of data set: In vivo efficacy study, OVCAR-3 subcutaneous xenograft tumor BALB/c nude mouse model. Here is the method: In vivo efficacy study of human ovarian cancer OVCAR-3 cells subcutaneous xenograft tumor BALB/c nude mouse model
Cell culture: Human ovarian cancer OVCAR-3 cells were monolayer cultured in vitro, the culture conditions were 10% fetal bovine serum, 100 U/mL Penicillin and 100 μg/mL Streptomycin were added in RPMI 1640 medium, cultured at 37° C. 5% CO2 incubator. Conventional digestion with trypsin-EDTA was performed for passage. When the cell saturation was 80%/90% and the number reached the required level, the cells were collected, counted, and inoculated.
Animals: BALB/c nude mice, female, 6-8 weeks old, weighed 18-22 grams. A total of 95 (42+ additional 53) animals were needed, provided by the Experimental Animal Management Department of Shanghai Institute of Family Planning Sciences (formerly Shanghai Sipulbichem).
Tumor inoculation: 0.2 mL (1×10^7) OVCAR-3 cells (with matrix glue, volume ratio of 1:1) were subcutaneously inoculated on the right back of each mouse, and the mice were grouped administrated when the average tumor volume reached about 150 mm^3.
Dosage and frequency of administration: Day 0 to Day 7, 10 mg/kg; Day 7 to Day 14, 10 mg/kg; Day 14 to Day 21, 30 mg/kg;
Experimental index: The experimental index was used to examine whether tumor growth was inhibited, delayed or cured. Tumor diameters were measured with vernier calipers twice a week. The calculation formula of tumor volume was: V=0.5a×b^2, wherein a and b represented the long and short diameters of the tumor, respectively.

CDK4/CyclinD1, sequence (P11802 whole entry): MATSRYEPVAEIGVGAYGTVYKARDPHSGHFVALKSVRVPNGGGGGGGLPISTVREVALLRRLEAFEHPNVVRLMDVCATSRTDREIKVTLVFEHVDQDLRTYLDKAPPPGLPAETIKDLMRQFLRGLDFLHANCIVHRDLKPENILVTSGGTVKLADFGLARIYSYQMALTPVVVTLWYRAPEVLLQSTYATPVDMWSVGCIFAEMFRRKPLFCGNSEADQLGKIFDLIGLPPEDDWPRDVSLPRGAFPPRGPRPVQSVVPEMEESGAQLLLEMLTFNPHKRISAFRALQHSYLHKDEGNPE
CDK4/CyclinD1, sequence (P24385 whole entry partner): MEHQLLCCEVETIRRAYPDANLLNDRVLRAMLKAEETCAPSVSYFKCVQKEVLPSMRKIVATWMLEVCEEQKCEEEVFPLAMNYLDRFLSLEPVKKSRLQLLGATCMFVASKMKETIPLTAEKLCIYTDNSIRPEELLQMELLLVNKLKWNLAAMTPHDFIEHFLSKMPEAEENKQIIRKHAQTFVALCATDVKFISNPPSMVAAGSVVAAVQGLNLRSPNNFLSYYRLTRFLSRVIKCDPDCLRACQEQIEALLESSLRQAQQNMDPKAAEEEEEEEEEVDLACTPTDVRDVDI
CDK6/CyclinD1, sequence (Q00534 whole entry): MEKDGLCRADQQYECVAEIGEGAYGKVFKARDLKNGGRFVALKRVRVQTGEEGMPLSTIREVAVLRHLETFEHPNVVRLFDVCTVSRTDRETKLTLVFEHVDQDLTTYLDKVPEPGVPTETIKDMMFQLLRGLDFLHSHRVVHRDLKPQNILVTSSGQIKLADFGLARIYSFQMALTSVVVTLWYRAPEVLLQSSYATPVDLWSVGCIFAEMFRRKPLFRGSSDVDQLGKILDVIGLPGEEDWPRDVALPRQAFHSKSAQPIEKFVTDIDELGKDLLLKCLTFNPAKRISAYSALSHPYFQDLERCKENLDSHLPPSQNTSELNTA
CDK6/CyclinD1, sequence (P24385 whole entry partner): as the sequence (P24385 whole entry partner) above
CDK1/CyclinB1, sequence (P06493 whole entry): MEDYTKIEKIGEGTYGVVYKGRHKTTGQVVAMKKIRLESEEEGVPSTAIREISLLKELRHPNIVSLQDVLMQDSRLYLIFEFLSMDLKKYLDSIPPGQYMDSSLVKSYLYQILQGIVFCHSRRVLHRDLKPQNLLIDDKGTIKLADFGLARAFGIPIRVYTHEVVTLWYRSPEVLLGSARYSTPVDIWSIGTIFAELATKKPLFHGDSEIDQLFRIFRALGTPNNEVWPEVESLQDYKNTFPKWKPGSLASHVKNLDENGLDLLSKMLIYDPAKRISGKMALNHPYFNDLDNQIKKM
CDK1/CyclinB1, sequence (P14635 whole entry partner): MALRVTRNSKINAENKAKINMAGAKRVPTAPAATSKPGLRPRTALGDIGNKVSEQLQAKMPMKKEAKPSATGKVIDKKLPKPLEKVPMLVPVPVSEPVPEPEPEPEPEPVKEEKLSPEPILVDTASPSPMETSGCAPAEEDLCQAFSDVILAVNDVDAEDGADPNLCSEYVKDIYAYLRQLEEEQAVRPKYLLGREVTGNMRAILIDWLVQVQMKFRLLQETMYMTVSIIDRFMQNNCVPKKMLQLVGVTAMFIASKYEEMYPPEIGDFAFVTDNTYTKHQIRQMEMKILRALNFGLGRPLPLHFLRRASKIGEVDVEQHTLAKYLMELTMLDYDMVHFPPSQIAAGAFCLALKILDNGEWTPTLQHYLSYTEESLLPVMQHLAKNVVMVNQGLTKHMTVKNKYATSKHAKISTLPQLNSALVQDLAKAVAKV
CDK7/CyclinH/MAT1, sequence (P50613 whole entry): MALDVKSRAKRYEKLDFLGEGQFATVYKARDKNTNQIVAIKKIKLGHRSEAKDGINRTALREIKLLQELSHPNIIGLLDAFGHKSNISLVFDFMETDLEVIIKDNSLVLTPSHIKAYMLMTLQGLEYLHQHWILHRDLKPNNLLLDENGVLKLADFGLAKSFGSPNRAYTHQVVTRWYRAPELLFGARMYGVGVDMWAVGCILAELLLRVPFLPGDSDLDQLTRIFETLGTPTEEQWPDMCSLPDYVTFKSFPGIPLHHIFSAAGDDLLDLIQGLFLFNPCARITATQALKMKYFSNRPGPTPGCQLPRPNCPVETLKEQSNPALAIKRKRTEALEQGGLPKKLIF
CDK7/CyclinH/MAT1, sequence (P51946 whole entry partner): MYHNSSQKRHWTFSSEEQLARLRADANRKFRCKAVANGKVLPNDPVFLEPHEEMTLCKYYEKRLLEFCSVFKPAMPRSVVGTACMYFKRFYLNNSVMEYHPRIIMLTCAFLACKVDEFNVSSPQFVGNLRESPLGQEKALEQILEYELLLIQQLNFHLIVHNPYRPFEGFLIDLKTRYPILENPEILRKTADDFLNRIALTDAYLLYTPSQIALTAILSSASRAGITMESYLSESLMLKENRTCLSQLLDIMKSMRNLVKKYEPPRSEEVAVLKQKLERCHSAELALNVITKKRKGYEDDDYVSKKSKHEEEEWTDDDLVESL
CDK7/CyclinH/MAT1, sequence (P51948 whole entry partner): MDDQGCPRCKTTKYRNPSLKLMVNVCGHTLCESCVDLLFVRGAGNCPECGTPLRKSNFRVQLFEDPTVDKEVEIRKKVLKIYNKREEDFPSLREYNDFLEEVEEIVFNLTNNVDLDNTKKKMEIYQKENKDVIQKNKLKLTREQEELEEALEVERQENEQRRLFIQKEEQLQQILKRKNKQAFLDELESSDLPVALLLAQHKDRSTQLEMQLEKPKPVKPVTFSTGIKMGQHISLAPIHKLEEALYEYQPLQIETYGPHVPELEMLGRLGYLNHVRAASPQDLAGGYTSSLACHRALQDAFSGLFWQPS
CDK9/CyclinT1, sequence (P50750 whole entry): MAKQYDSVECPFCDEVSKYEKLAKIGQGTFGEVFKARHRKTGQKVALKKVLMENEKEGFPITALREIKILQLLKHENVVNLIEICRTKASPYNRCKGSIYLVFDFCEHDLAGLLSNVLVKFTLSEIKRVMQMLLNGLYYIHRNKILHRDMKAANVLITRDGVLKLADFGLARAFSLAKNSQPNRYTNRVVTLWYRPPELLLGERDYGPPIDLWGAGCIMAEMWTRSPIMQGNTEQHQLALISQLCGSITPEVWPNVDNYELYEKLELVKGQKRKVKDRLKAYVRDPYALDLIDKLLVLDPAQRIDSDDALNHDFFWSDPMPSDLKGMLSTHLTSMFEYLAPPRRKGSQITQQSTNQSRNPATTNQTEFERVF
CDK9/CyclinT1, sequence (O60563 whole entry partner): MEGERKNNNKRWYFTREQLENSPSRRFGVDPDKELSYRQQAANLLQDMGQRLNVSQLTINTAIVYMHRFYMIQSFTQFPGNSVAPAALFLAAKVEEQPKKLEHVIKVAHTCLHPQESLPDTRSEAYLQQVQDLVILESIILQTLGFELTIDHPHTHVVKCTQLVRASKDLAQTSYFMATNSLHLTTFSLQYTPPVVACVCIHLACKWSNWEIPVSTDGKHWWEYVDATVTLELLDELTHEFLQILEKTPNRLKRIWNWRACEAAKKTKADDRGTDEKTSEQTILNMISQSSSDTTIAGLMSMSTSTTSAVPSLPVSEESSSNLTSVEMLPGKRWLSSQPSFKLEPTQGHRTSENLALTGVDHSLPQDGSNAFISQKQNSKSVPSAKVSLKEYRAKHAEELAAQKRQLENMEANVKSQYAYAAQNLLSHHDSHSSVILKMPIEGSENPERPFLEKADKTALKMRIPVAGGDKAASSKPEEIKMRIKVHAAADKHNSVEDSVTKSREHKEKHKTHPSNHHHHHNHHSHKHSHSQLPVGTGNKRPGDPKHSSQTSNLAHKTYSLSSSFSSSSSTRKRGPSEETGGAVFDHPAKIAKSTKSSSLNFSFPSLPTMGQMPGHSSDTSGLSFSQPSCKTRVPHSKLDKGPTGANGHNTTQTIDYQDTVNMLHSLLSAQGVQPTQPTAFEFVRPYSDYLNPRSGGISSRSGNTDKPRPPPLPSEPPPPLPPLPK
Experimental for CDK7/CyclinH/MAT1: CDK7/CyclinH/MAT1 Enzyme Reaction System
Enzymes, substrates (MBP), ATP, and inhibitors were diluted by kinase buffer in the kit. The compounds to be tested were diluted 5-fold with a multi-channel pipette to the eighth concentration, that is, from 50 μM to 0.65 nM, the concentration of DMSO was 5%, and a double-hole experiment was set up. 1 μL of each concentration gradient of inhibitors, 2 μL of CDK7/CyclinH/MAT1 enzyme (20 ng), 2 μL mixture of substrate and ATP (10 μM ATP, 0.1 μg/μL substrate) were added to the microplates, and the final concentration gradient of the compound was 10 μM to 0.13 nM. The reaction system was reacted at 25° C. for 120 minutes. After the reaction, 5 μL of ADP-Glo reagent was added to each well, the reaction was carried out at 25° C. for 40 minutes, after the reaction was completed, 10 μL of kinase detection reagent was added to each well, the reaction was carried out at 25° C. for 30 minutes, the multiple label analyzer was used to read the chemiluminescence with an integration time of 0.5 seconds.

Take `Cc1cc2cnc(NC3CCN(S(C)(=O)=O)CC3)nc2c(N[C@@H]2CCC[C@@]2(C)O)n1` [Compound 8]: the IC50 at CDK1/CyclinB1 stood at 6.77 nM; on CDK2/CyclinA2, 0.73 nM; at CDK2/CyclinE1 it was 3.92 nM; on CDK4/CyclinD1, 1.23 nM; at CDK6/CyclinD1, 0.81 nM; at CDK7/CyclinH/MAT1, 41 nM. In addition, on CDK9/CyclinT1, the IC50 was found to be 89 nM.
Turning to `CC(Nc1nc(C(F)F)cc2cnc(NC3CCN(S(C)(=O)=O)CC3)nc12)C(F)(F)F` (stereo not shown) [Compound 18], the IC50 is 4.72 nM at CDK2/CyclinE1, 1.56 nM on CDK4/CyclinD1, 1.32 nM at CDK6/CyclinD1 and 17 nM in the data set with OVCAR-3 cells. For the same molecule, the “Oral exposure AUC0-t” value in data set [1] stood at 2.365 µM·h. The “Tumor volume (Day 0)” value in data set [2] (Day 0 (at grouping), OVCAR-3 xenograft, BALB/c nude mice) was 151 mm^3. The “Tumor volume (Day 7)” value in data set [2] (Day 7, 10 mg/kg from day 0 to day 7) stood at 233 mm^3. Moreover, the “Tumor volume (Day 14)” value in [2] (Day 14, 10 mg/kg from day 0 to day 14) is given as 393 mm^3. In data set [2] (Day 21, 10 mg/kg day 0 to day 14, 30 mg/kg from day 14 to day 21), the “Tumor volume (Day 21)” value came to 529 mm^3.
